According to article PMC6499206, “Quantification of Volatile Metabolites Derived From Garlic (Allium sativum) in Human Urine” (Frontiers in Nutrition, 2019):

Test: Quantification of garlic-derived metabolites in human urine after ingestion of 3 g raw garlic (SIDA, SAFE, HRGC-MS / HRGC-GC-MS)
Assay type: in vivo
Set-up: metabolite in urine related to creatinine: unit not given here
Settings: for metabolite concentration in urine / metabolite concentration in urine, creatinine-normalized / highest detected concentration of the sample series: 3 g raw garlic; for highest detected concentration of the sample series: same bulb
Method in brief: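 Quantification used stable isotope dilution (²H3-AMS, -AMSO, -AMSO2 standards), SAFE distillation at 50°C of DCM-treated urine, and GC-MS on a DB-FFAP column, with creatinine from the Jaffé reaction at 492 nm. Urine came from 18 volunteers avoiding sulfur-rich foods, sampled before and up to 24 h after eating 3 g raw garlic.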

metabolite concentration in urine (U VII, 1 h post (1.08 h)): 239.4 µg/kg | metabolite concentration in urine, creatinine-normalized (U VII, 1 h post (1.08 h)): 148.3 µg/mmol creatinine | metabolite concentration in urine (U VII, 2 h post (2.00 h)): 158.6 µg/kg | metabolite concentration in urine, creatinine-normalized (U VII, 2 h post (2.00 h)): 162.5 µg/mmol creatinine | metabolite concentration in urine (U VII, 4 h post (4.00 h)): 145.1 µg/kg | metabolite concentration in urine, creatinine-normalized (U VII, 4 h post (4.00 h)): 90.0 µg/mmol creatinine | metabolite concentration in urine (U VII, 6 h post (6.00 h)): 123.7 µg/kg | metabolite concentration in urine, creatinine-normalized (U VII, 6 h post (6.00 h)): 40.0 µg/mmol creatinine | metabolite concentration in urine (U VII, 8 h post (8.00 h)): 58.6 µg/kg | metabolite concentration in urine, creatinine-normalized (U VII, 8 h post (8.00 h)): 30.1 µg/mmol creatinine | metabolite concentration in urine (U VII, 24 h post (24.00 h)): 5.9 µg/kg | metabolite concentration in urine, creatinine-normalized (U VII, 24 h post (24.00 h)): 1.6 µg/mmol creatinine | metabolite concentration in urine (U VII, pre (-0.25 h)): 3.4 µg/kg | metabolite concentration in urine, creatinine-normalized (U VII, pre (-0.25 h)): 1.0 µg/mmol creatinine | metabolite concentration in urine (U VIII, 0.5 h post (0.52 h)): 184.6 µg/kg | metabolite concentration in urine, creatinine-normalized (U VIII, 0.5 h post (0.52 h)): 234.8 µg/mmol creatinine | metabolite concentration in urine (U VIII, 1 h post (1.08 h)): 423.9 µg/kg | metabolite concentration in urine, creatinine-normalized (U VIII, 1 h post (1.08 h)): 255.5 µg/mmol creatinine | metabolite concentration in urine (U VIII, 2 h post (2.08 h)): 293.8 µg/kg | metabolite concentration in urine, creatinine-normalized (U VIII, 2 h post (2.08 h)): 277.9 µg/mmol creatinine | metabolite concentration in urine (U VIII, 4 h post (4.07 h)): 239.2 µg/kg | metabolite concentration in urine, creatinine-normalized (U VIII, 4 h post (4.07 h)): 113.3 µg/mmol creatinine | metabolite concentration in urine (U VIII, 6 h post (6.08 h)): 197.8 µg/kg | metabolite concentration in urine, creatinine-normalized (U VIII, 6 h post (6.08 h)): 52.6 µg/mmol creatinine | metabolite concentration in urine (U VIII, 8 h post (7.90 h)): 109.7 µg/kg | metabolite concentration in urine, creatinine-normalized (U VIII, 8 h post (7.90 h)): 40.0 µg/mmol creatinine | metabolite concentration in urine (U VIII, 24 h post (23.83 h)): 26.2 µg/kg | metabolite concentration in urine, creatinine-normalized (U VIII, 24 h post (23.83 h)): 9.9 µg/mmol creatinine | metabolite concentration in urine (U VIII, pre (-0.33 h)): 61.4 µg/kg | metabolite concentration in urine, creatinine-normalized (U VIII, pre (-0.33 h)): 13.8 µg/mmol creatinine | metabolite concentration in urine (U X, 0.5 h post (0.53 h)): 73.7 µg/kg | metabolite concentration in urine, creatinine-normalized (U X, 0.5 h post (0.53 h)): 38.2 µg/mmol creatinine | metabolite concentration in urine (U X, 1 h post (1.03 h)): 77.0 µg/kg | metabolite concentration in urine, creatinine-normalized (U X, 1 h post (1.03 h)): 97.5 µg/mmol creatinine | metabolite concentration in urine (U X, 2 h post (2.03 h)): 68.8 µg/kg | metabolite concentration in urine, creatinine-normalized (U X, 2 h post (2.03 h)): 102.4 µg/mmol creatinine | metabolite concentration in urine (U X, 4 h post (3.85 h)): 68.2 µg/kg | metabolite concentration in urine, creatinine-normalized (U X, 4 h post (3.85 h)): 51.9 µg/mmol creatinine | metabolite concentration in urine (U X, 6 h post (5.80 h)): 68.6 µg/kg | metabolite concentration in urine, creatinine-normalized (U X, 6 h post (5.80 h)): 29.1 µg/mmol creatinine | metabolite concentration in urine (U X, 8 h post (7.75 h)): 37.9 µg/kg | metabolite concentration in urine, creatinine-normalized (U X, 8 h post (7.75 h)): 16.3 µg/mmol creatinine | metabolite concentration in urine (U X, 24 h post (23.97 h)): 23.9 µg/kg | metabolite concentration in urine, creatinine-normalized (U X, 24 h post (23.97 h)): 2.2 µg/mmol creatinine | metabolite concentration in urine (U X, pre (-0.07 h)): < LOD^2 | metabolite concentration in urine, creatinine-normalized (U X, pre (-0.07 h)): < LOD^2 | metabolite concentration in urine (U XI, 0.5 h post (0.50 h)): 64.0 µg/kg | metabolite concentration in urine, creatinine-normalized (U XI, 0.5 h post (0.50 h)): 77.5 µg/mmol creatinine | metabolite concentration in urine (U XI, 1 h post (1.02 h)): 106.2 µg/kg | metabolite concentration in urine, creatinine-normalized (U XI, 1 h post (1.02 h)): 133.3 µg/mmol creatinine | metabolite concentration in urine (U XI, 2 h post (2.00 h)): 102.2 µg/kg | metabolite concentration in urine, creatinine-normalized (U XI, 2 h post (2.00 h)): 133.3 µg/mmol creatinine | metabolite concentration in urine (U XI, pre (-0.08 h)): 3.8 µg/kg | metabolite concentration in urine, creatinine-normalized (U XI, pre (-0.08 h)): 1.1 µg/mmol creatinine | metabolite concentration in urine (U XII, 0.5 h post (0.48 h)): 83.8 µg/kg | metabolite concentration in urine, creatinine-normalized (U XII, 0.5 h post (0.48 h)): 11.2 µg/mmol creatinine | metabolite concentration in urine (U XII, 1 h post (1.03 h)): 82.1 µg/kg | metabolite concentration in urine, creatinine-normalized (U XII, 1 h post (1.03 h)): 83.2 µg/mmol creatinine | metabolite concentration in urine (U XII, 2 h post (1.85 h)): 72.2 µg/kg | metabolite concentration in urine, creatinine-normalized (U XII, 2 h post (1.85 h)): 108.2 µg/mmol creatinine | metabolite concentration in urine (U XII, 4 h post (3.80 h)): 84.6 µg/kg | metabolite concentration in urine, creatinine-normalized (U XII, 4 h post (3.80 h)): 31.9 µg/mmol creatinine | metabolite concentration in urine (U XII, 6 h post (5.82 h)): 61.6 µg/kg | metabolite concentration in urine, creatinine-normalized (U XII, 6 h post (5.82 h)): 10.8 µg/mmol creatinine | metabolite concentration in urine (U XII, 8 h post (7.82 h)): 28.7 µg/kg | metabolite concentration in urine, creatinine-normalized (U XII, 8 h post (7.82 h)): 10.1 µg/mmol creatinine | metabolite concentration in urine (U XII, 24 h post (23.92 h)): 11.3 µg/kg | metabolite concentration in urine, creatinine-normalized (U XII, 24 h post (23.92 h)): 0.8 µg/mmol creatinine | metabolite concentration in urine (U XII, pre (-0.08 h)): 3.9 µg/kg | metabolite concentration in urine, creatinine-normalized (U XII, pre (-0.08 h)): 0.2 µg/mmol creatinine | metabolite concentration in urine (U XIII, 0.5 h post (0.42 h)): 38.0 µg/kg | metabolite concentration in urine, creatinine-normalized (U XIII, 0.5 h post (0.42 h)): 23.8 µg/mmol creatinine | metabolite concentration in urine (U XIII, 1 h post (0.92 h)): 216.6 µg/kg | metabolite concentration in urine, creatinine-normalized (U XIII, 1 h post (0.92 h)): 87.7 µg/mmol creatinine | metabolite concentration in urine (U XIII, 2 h post (1.92 h)): 197.5 µg/kg | metabolite concentration in urine, creatinine-normalized (U XIII, 2 h post (1.92 h)): 57.1 µg/mmol creatinine | metabolite concentration in urine (U XIII, 4 h post (3.92 h)): 105.6 µg/kg | metabolite concentration in urine, creatinine-normalized (U XIII, 4 h post (3.92 h)): 22.5 µg/mmol creatinine | metabolite concentration in urine (U XIII, 6 h post (5.92 h)): 42.9 µg/kg | metabolite concentration in urine, creatinine-normalized (U XIII, 6 h post (5.92 h)): 3.7 µg/mmol creatinine | metabolite concentration in urine (U XIII, 8 h post (7.92 h)): 2.6 µg/kg | metabolite concentration in urine, creatinine-normalized (U XIII, 8 h post (7.92 h)): 0.3 µg/mmol creatinine | metabolite concentration in urine (U XIII, 24 h post (23.92 h)): 2.6 µg/kg | metabolite concentration in urine, creatinine-normalized (U XIII, 24 h post (23.92 h)): 0.3 µg/mmol creatinine | metabolite concentration in urine (U XIII, pre (-0.08 h)): < LOD^2 | metabolite concentration in urine, creatinine-normalized (U XIII, pre (-0.08 h)): < LOD^2 | variation factor of the concentration maxima between test persons (Urine XIII-XVI, highest vs lowest maximum): up to 3.0 | highest detected concentration of the sample series (Urine XIII): 87.7 μg/mmol creatinine | highest detected concentration of the sample series (Urine XIV (AMS: printed Urine UIV)): 84.7 μg/mmol creatinine | highest detected concentration of the sample series (Urine XV): 150.4 μg/mmol creatinine | highest detected concentration of the sample series (Urine XVI): 50.1 μg/mmol creatinine | metabolite in urine related to creatinine (urine set U XIX, 0.5 h post (0.50 h), garlic 3.1133 g): 15.1 | metabolite in urine related to creatinine (urine set U XIX, 1 h post (1.00 h), garlic 3.1133 g): 68.8 | metabolite in urine related to creatinine (urine set U XIX, 2 h post (2.00 h), garlic 3.1133 g): 70.6 | metabolite in urine related to creatinine (urine set U XIX, 4 h post (4.00 h), garlic 3.1133 g): 27.0 | metabolite in urine related to creatinine (urine set U XIX, 6 h post (6.20 h), garlic 3.1133 g): 9.8 | metabolite in urine related to creatinine (urine set U XIX, 8 h post (7.93 h), garlic 3.1133 g): 5.9 | metabolite in urine related to creatinine (urine set U XIX, 24 h post (23.98 h), garlic 3.1133 g): 0.2 | metabolite in urine related to creatinine (urine set U XIX, pre (-0.07 h), garlic 3.1133 g): < LOD^2 | metabolite in urine related to creatinine (urine set U XVII, 0.5 h post (0.58 h), garlic 3.1559 g): 0.8 | metabolite in urine related to creatinine (urine set U XVII, 1 h post (1.00 h), garlic 3.1559 g): 10.7 | metabolite in urine related to creatinine (urine set U XVII, 2 h post (2.17 h), garlic 3.1559 g): 27.6 | metabolite in urine related to creatinine (urine set U XVII, 4 h post (4.00 h), garlic 3.1559 g): 15.5 | metabolite in urine related to creatinine (urine set U XVII, 6 h post (6.08 h), garlic 3.1559 g): 1.2 | metabolite in urine related to creatinine (urine set U XVII, 8 h post (8.00 h), garlic 3.1559 g): 1.8 | metabolite in urine related to creatinine (urine set U XVII, 24 h post (23.92 h), garlic 3.1559 g): 0.2 | metabolite in urine related to creatinine (urine set U XVII, pre (-0.08 h), garlic 3.1559 g): 0.3 | metabolite in urine related to creatinine (urine set U XVIII, 0.5 h post (0.63 h), garlic 3.1981 g): 44.1 | metabolite in urine related to creatinine (urine set U XVIII, 1 h post (1.05 h), garlic 3.1981 g): 84.8 | metabolite in urine related to creatinine (urine set U XVIII, 2 h post (2.00 h), garlic 3.1981 g): 94.9 | metabolite in urine related to creatinine (urine set U XVIII, 4 h post (3.97 h), garlic 3.1981 g): 50.9 | metabolite in urine related to creatinine (urine set U XVIII, 6 h post (5.97 h), garlic 3.1981 g): 16.6 | metabolite in urine related to creatinine (urine set U XVIII, 8 h post (8.30 h), garlic 3.1981 g): 17.1 | metabolite in urine related to creatinine (urine set U XVIII, 24 h post (24.13 h), garlic 3.1981 g): 0.5 | metabolite in urine related to creatinine (urine set U XVIII, pre (-0.08 h), garlic 3.1981 g): < LOD^2
SMILES: C=CC[S+](C)[O-] (stereo not shown) [AMSO, allyl methyl sulfoxide]
